Legend:
Format in all cases: biochemical
human IGF1R (hIGF1R) = biological target: T1, human IGF1R (hIGF1R) (Homo sapiens, UniProt P08069); test: TR-FRET kinase assay of purified hIGF1R; conditions: activated hIGF1R 0.5 nM, 10 μM ATP, values given as pIC50 category, read-out: IGF-1R pIC50 (converted)
T1 construct: containing amino acid residues 957-1367 of human IGF1R; made in house; host or cells: Sf9 cells (baculovirus)
Protocol: (§1) Time Resolved Fluorescence Resonance Energy Transfer (TR-FRET) assays were carried out on the exemplified compounds as follows:
(§2) Purity is determined by HPLC. The calculated molecular mass of the peptide is 2216 dalton. Tyrosine phosphorylation by human IGF1R (hIGF1R) or human IR (hIR) occurs as indicated (Y*) in the peptide sequence described. Solid peptide sample is dissolved to approximately 1 mM in DMSO, aliquoted, and stored at −20° C. until use. True peptide concentration is determined by amino acid analysis.
hIGF1R: GST-rTEV-IGF-1R(957-1367) containing amino acid residues 957-1367 of human IGF1R (as annotated by National Center for Biotechnology Information (NCBI) accession number NP_000866) is purified from a baculovirus expression system in Sf9 cells using Glutathione Sepharose 4FF column chromatography followed by Sephadex-200 size exclusion column chromatography. […] Samples, in 25 mM Tris-HCl, 250 mM NaCl, 5% glycerol, 1 mM DTT, pH 7.5, are stored at −80° C. until use.
(§3) hIGF1R: Activation of GST-rTEV-IGF-1R(957-1367) is achieved by a 4 minute incubation of hIGF1R (2.7 μM final) with 2 mM ATP in 50 mM HEPES, 20 mM MgCL2, 0.1 mg/ml BSA, at room temperature. Autophosphorylation is stopped by addition of EDTA (to 100 mM final). Aliquoted samples are flash frozen in liquid nitrogen and stored at −80° C. until use.
(§4) Assays are performed in 384-well (Greiner, Catalog No. 784076) microtiter plates. Reaction buffer (50 mM HEPES buffer, pH 7.5; 10 mM MgCL2; 3 mM DTT; 1 mM CHAPS; 0.1 mg/ml BSA) for peptide phosphorylation (10 μl volume) contained, in final concentrations, 500 nM biotinylated peptide substrate; 10 μM ATP; and purified, activated hIGF1R or hIR (0.5 nM). Compounds, titrated in DMSO, are evaluated at eleven concentrations ranging from 50 μM to 0.2 nM. […] Reactions are incubated for 1 hour at room temperature and are stopped by a 5 μl addition of EDTA (to 33 mM). A further addition of 5 μl detection reagents (for final 7 nM Streptavidin-APC (Perkin Elmer #CR^130-150), 1 nM Europium-labeled anti-phosphotyrosine monoclonal antibody (PerkinElmer #AD0067), added in reaction buffer (without DTT), is required for signal generation. After 30 minutes, signal is read on PerkinElmer Viewlux microplate imager or Wallac Victor fluorometer.
(§5) The data for compound concentration responses were plotted as % Inhibition, calculated with the data reduction formula 100*(1-[(U1-C2)/(C1-C2)]), versus concentration of compound, where • U is the unknown value, • C1 is the average control value obtained for DMSO only, and • C2 is the average control value obtained for reactions stopped with EDTA at • t=0.
(§6) Data were fitted to the curve described by: y=((Vmax*x)/(K+x)) where • Vmax is the upper asymptote and • K is the IC50.

human IR (hIR) = biological target: T2, human IR (hIR) (Homo sapiens, UniProt P06213); test: TR-FRET kinase assay of purified hIR; conditions: activated hIR 0.5 nM, 10 μM ATP, values given as pIC50 category
T2 construct: containing amino acid residues 979-1382 of human IR; made in house; host or cells: Sf9 cells (baculovirus), same process as hIGF1R
T2 sequence (P06213 979-1382): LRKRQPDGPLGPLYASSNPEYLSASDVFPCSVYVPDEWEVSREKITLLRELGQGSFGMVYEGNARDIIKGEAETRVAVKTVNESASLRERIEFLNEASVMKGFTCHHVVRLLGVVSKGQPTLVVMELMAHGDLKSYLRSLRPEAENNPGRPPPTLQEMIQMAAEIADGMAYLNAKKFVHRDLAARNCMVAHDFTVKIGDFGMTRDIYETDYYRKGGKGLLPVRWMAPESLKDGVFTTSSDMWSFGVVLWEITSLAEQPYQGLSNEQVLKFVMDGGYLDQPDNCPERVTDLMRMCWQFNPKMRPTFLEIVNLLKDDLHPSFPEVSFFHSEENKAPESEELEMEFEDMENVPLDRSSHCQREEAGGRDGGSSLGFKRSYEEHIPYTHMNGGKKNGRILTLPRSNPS
Protocol: as §1, §2
hIR: GST-rTEV-IR(979-1382) containing amino acid residues 979-1382 of human IR (as annotated by NCBI accession number NP_000199) is expressed and purified by the same process as hIGF1R. […] Samples, in 25 mM Tris-HCl, 250 mM NaCl, 5% glycerol, 1 mM DTT, pH 7.5, are stored at −80° C. until use.
as §3, with “hIR:” for “hIGF1R:”, “5” for “4”, “hIR” for “hIGF1R”, “100” for “50”, “10” for “20”
as §4, §5, §6

ALK = ALK (Homo sapiens, UniProt Q9UM73); test: ALK enzyme assay (HTRF); conditions: 0.25 nM ALK, 15.0 μM ATP, values given as pIC50 category
Sequence of ALK (Q9UM73 19-1620): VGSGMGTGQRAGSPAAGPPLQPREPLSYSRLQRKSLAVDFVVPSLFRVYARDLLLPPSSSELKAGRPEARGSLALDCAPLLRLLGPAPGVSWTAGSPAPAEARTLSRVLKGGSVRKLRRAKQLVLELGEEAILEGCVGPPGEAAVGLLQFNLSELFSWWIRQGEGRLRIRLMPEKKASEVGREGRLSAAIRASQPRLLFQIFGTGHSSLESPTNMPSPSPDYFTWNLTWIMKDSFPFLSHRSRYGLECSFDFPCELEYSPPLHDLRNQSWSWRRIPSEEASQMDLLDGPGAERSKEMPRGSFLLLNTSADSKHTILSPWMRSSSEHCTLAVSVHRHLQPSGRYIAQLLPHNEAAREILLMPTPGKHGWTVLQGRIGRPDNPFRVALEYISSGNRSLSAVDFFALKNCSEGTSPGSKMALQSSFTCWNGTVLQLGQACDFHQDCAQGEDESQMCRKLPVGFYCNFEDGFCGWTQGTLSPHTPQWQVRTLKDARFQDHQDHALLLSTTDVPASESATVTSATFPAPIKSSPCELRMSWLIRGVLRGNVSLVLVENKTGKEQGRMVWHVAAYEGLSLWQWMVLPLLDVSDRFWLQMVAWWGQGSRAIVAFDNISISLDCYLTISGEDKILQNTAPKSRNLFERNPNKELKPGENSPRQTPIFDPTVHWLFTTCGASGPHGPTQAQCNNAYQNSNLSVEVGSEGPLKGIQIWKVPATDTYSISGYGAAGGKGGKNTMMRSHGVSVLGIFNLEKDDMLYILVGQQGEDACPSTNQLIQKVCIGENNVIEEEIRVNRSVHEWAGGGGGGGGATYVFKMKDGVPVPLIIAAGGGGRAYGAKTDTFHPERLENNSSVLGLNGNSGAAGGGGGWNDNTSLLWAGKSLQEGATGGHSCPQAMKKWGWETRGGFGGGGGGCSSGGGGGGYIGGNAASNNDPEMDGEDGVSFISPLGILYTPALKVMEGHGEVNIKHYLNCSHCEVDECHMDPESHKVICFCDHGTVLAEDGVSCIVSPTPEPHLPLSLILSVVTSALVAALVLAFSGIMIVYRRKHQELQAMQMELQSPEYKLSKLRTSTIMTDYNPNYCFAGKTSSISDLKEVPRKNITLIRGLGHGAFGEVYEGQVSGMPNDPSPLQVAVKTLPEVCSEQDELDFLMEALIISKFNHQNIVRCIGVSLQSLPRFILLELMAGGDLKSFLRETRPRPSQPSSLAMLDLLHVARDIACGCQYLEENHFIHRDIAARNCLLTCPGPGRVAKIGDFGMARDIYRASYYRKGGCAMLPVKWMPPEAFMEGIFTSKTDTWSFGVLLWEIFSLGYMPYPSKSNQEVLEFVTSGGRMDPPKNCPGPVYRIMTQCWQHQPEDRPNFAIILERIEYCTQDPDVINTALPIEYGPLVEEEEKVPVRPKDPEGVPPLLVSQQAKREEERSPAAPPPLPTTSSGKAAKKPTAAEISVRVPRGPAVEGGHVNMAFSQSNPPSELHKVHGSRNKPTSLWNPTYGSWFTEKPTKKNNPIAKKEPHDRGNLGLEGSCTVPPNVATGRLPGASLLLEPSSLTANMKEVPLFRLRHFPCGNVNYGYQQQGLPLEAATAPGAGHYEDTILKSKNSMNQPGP
Protocol: The method measures the ability of the isolated enzyme to catalyse the transfer of the gamma-phosphate from ATP onto the tyrosine residue of a biotinylated synthetic peptide. The extent of tyrosine phosphorylation was measured using an anti-phosphotyrosine antibody, and quantified by homogenous time-resolved fluorescence (HTRF) assay purchased from CisBio (62TK0PEJ).
Reactions were performed in black 384-well polystyrene low volume plates in a final volume of 5 μl.
The reactions were then started by adding the substrate mix. The reactions were allowed to proceed for 120 minutes at 20° C. The reactions were then terminated by the addition of 5 μl HTRF detection mix to each well. The final concentrations of the detection reagents were: 50 mM HEPES (pH7.0); 0.1% BSA; 0.8 M KF; 20 mM EDTA; 1 mM CHAPS; TK-antibody Europium Cryptate; and 41 nM streptavidin-XL665. Assay plates were left unsealed, stacked and incubated at 20° for 60 minutes. Quantification of activity was achieved by counting in an Envision Counter (PerkinElmer).
Compounds under analysis were dissolved in Me2SO to 1.0 mM and serially diluted 1 to 3 with Me2SO through twelve dilutions. 0.05 μl of each concentration was transferred to the corresponding well of an assay plate. This creates a final compound concentration range from 0.00017 to 10 μM.
The data for dose responses were plotted as % Inhibition calculated with the data reduction formula 100*(1-(U1-C2)/(C1-C2)) versus concentration of compound where U is the unknown value, C1 is the average control value obtained for 1% DMSO, and C2 is the average control value obtained for 0.1 M EDTA. Data were fitted with a curve described by:
[formula] where A is the minimum y, B is the maximum y concentration [M], D is the slope factor, and x is the log10 of the compound.

T1 sequence (P08069 957-1367): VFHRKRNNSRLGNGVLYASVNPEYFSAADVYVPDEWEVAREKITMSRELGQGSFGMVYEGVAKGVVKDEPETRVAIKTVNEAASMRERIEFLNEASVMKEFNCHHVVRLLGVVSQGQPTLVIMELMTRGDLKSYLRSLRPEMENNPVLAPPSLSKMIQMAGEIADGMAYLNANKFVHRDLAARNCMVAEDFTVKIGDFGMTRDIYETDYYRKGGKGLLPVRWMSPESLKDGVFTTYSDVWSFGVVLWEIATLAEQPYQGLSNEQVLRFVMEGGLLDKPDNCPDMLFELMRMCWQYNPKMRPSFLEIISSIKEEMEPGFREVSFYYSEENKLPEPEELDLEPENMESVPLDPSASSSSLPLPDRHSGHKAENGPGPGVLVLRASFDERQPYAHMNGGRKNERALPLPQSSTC

Compound	IC50 (human IGF1R (hIGF1R)) [nM]	IC50 (human IR (hIR)) [nM]	IC50 (ALK) [nM]
CCCN1CCC=C(c2ccc(Nc3nc(Nc4ccccc4C(N)=O)c4cc[nH]c4n3)c(C)c2)C1 [Example 1, 2-[(2-{[2-methyl-4-(1-propyl-1,2,5,6-tetrahydro-3-pyridinyl)phenyl]amino}-1H-pyrrolo[2,3-d]pyrimidin-4-yl)amino]benzamide]	5.01 to 200	5.01 to 158	0.251 to 1
COc1cc(CS(C)(=O)=O)ccc1Nc1nc(Nc2ccccc2C(N)=O)c2cc[nH]c2n1 [Example 19, 2-{[2-({2-(methyloxy)-4-[(methylsulfonyl)methyl]phenyl}amino)-1H-pyrrolo[2,3-d]pyrimidin-4-yl]amino}benzamide]	1.26 to 3.98	1.26 to 3.98	1.26 to 3.98
CCCN1CCC=C(c2ccc(Nc3nc(Nc4ccc(C)cc4C(N)=O)c4cc[nH]c4n3)c(C)c2)C1 [Example 32, 5-methyl-2-[(2-{[2-methyl-4-(1-propyl-1,2,5,6-tetrahydro-3-pyridinyl)phenyl]amino}-1H-pyrrolo[2,3-d]pyrimidin-4-yl)amino]benzamide]	1.26 to 3.98	1.26 to 3.98	1.26 to 3.98
Cc1ccc(Nc2nc(Nc3cc(NC(=O)CN(C)C)ccc3C)nc3[nH]ccc23)c(C(N)=O)c1 [Example 34, 2-{[2-({5-[(N,N-dimethylglycyl)amino]-2-methylphenyl}amino)-1H-pyrrolo[2,3-d]pyrimidin-4-yl]amino}-5-methylbenzamide]	5.01 to 200	1.26 to 3.98	5.01 to 200
CCCN1CCC=C(c2ccc(Nc3nc(Nc4cc(C)ccc4C(N)=O)c4cc[nH]c4n3)c(C)c2)C1 [Example 35, 4-methyl-2-[(2-{[2-methyl-4-(1-propyl-1,2,5,6-tetrahydro-3-pyridinyl)phenyl]amino}-1H-pyrrolo[2,3-d]pyrimidin-4-yl)amino]benzamide]	5.01 to 200	5.01 to 158	5.01 to 200
CCCN1CCC=C(c2ccc(Nc3nc(Nc4ccc(OC)cc4C(N)=O)c4cc[nH]c4n3)c(C)c2)C1 [Example 37, 5-(methyloxy)-2-[(2-{[2-methyl-4-(1-propyl-1,2,5,6-tetrahydro-3-pyridinyl)phenyl]amino}-1H-pyrrolo[2,3-d]pyrimidin-4-yl)amino]benzamide]	5.01 to 200		1.26 to 3.98
Cc1ccc(NC(=O)CN(C)C)cc1Nc1nc(Nc2ccc(Cl)cc2C(N)=O)c2cc[nH]c2n1 [Example 109, 5-chloro-2-{[2-({5-[(N,N-dimethylglycyl)amino]-2-methylphenyl}amino)-1H-pyrrolo[2,3-d]pyrimidin-4-yl]amino}benzamide]	1.26 to 3.98	0.251 to 1	5.01 to 200
CNC(=O)c1c(F)cccc1Nc1nc(Nc2cc3c(cc2OC)CCN3C(=O)CN2CCC(O)C2)nc2[nH]ccc12 (centres unmarked) [Example 182, 2-fluoro-6-[(2-{[1-[(3-hydroxy-1-pyrrolidinyl)acetyl]-5-(methyloxy)-2,3-dihydro-1H-indol-6-yl]amino}-1H-pyrrolo[2,3-d]pyrimidin-4-yl)amino]-N-methylbenzamide]			0.251 to 1
CNC(=O)c1c(F)cccc1Nc1nc(Nc2cc3c(cc2OC)CCN3C(=O)CN2CCCC(O)C2)nc2[nH]ccc12 (centres unmarked) [Example 184, 2-fluoro-6-[(2-{[1-[(3-hydroxy-1-piperidinyl)acetyl]-5-(methyloxy)-2,3-dihydro-1H-indol-6-yl]amino}-1H-pyrrolo[2,3-d]pyrimidin-4-yl)amino]-N-methylbenzamide]			1.26 to 3.98

Further lines, results first:

IC50 (human IGF1R (hIGF1R)) [nM]	IC50 (human IR (hIR)) [nM]	IC50 (ALK) [nM]	Compound
1.26 to 3.98	0.251 to 1	1.26 to 3.98	Cc1ccc(NC(=O)CN(C)C)cc1Nc1nc(Nc2ccccc2C(N)=O)c2cc[nH]c2n1 [Example 13, 2-{[2-({5-[(N,N-dimethylglycyl)amino]-2-methylphenyl}amino)-1H-pyrrolo[2,3-d]pyrimidin-4-yl]amino}benzamide]
5.01 to 200	5.01 to 158	5.01 to 200	COc1ccc(CS(C)(=O)=O)cc1Nc1nc(Nc2ccccc2C(N)=O)c2cc[nH]c2n1 [Example 20, 2-{[2-({2-(methyloxy)-5-[(methylsulfonyl)methyl]phenyl}amino)-1H-pyrrolo[2,3-d]pyrimidin-4-yl]amino}benzamide]
		1.26 to 3.98	COc1cc2c(cc1Nc1nc(Nc3cccc(F)c3C(N)=O)c3cc[nH]c3n1)N(C(=O)CN1CCC(O)C1)CC2 (centres unmarked) [Example 181, 2-fluoro-6-[(2-{[1-[(3-hydroxy-1-pyrrolidinyl)acetyl]-5-(methyloxy)-2,3-dihydro-1H-indol-6-yl]amino}-1H-pyrrolo[2,3-d]pyrimidin-4-yl)amino]benzamide]
		0.251 to 1	COc1cc2c(cc1Nc1nc(Nc3cccc(F)c3C(N)=O)c3cc[nH]c3n1)N(C(=O)CN1CCCC(O)C1)CC2 (centres unmarked) [Example 183, 2-fluoro-6-[(2-{[1-[(3-hydroxy-1-piperidinyl)acetyl]-5-(methyloxy)-2,3-dihydro-1H-indol-6-yl]amino}-1H-pyrrolo[2,3-d]pyrimidin-4-yl)amino]benzamide]
		0.251 to 1	COc1cc2c(cc1Nc1nc(Nc3ccccc3C(N)=O)c3cc[nH]c3n1)N(C(=O)CN(C)C)CC2 [Example 240, 2-[(2-{[1-(N,N-dimethylglycyl)-5-(methyloxy)-2,3-dihydro-1H-indol-6-yl]amino}-1H-pyrrolo[2,3-d]pyrimidin-4-yl)amino]benzamide]
		5.01 to 200	CNC(=O)c1ccccc1Nc1nc(Nc2cc3c(cc2OC)CCN3C(=O)CN(C)C)nc2[nH]ccc12 [Example 241, 2-[(2-{[1-(N,N-dimethylglycyl)-5-(methyloxy)-2,3-dihydro-1H-indol-6-yl]amino}-1H-pyrrolo[2,3-d]pyrimidin-4-yl)amino]-N-methylbenzamide]
